Experimental data taken from ChEMBL document CHEMBL4507276 (2021).

How the values were obtained:
[1] = target: Adenosine receptor A2a (Homo sapiens) (UniProt P29274); experiment: A2A/H Cerep selectivity data (BI); conditions: filed as antagonist, Compound concentration 20.0 uM
[2] = target: Adenosine receptor A3 (Homo sapiens) (UniProt P0DMS8); experiment: A3/H Cerep selectivity data (BI); conditions: Compound concentration 20.0 uM
[3] = target: Mitogen-activated protein kinase 14 (Homo sapiens) (UniProt Q16539); experiment: P38ALPHA_CE Cerep selectivity data (BI); conditions: Compound concentration 20.0 uM
[4] = target: Tyrosine-protein kinase ABL1 (Homo sapiens) (UniProt P00519); experiment: ABL1 Invitrogen selectivity data (BI); conditions: Compound concentration 3.0 uM
Sequence of Tyrosine-protein kinase ABL1 (Homo sapiens) (P00519 whole entry): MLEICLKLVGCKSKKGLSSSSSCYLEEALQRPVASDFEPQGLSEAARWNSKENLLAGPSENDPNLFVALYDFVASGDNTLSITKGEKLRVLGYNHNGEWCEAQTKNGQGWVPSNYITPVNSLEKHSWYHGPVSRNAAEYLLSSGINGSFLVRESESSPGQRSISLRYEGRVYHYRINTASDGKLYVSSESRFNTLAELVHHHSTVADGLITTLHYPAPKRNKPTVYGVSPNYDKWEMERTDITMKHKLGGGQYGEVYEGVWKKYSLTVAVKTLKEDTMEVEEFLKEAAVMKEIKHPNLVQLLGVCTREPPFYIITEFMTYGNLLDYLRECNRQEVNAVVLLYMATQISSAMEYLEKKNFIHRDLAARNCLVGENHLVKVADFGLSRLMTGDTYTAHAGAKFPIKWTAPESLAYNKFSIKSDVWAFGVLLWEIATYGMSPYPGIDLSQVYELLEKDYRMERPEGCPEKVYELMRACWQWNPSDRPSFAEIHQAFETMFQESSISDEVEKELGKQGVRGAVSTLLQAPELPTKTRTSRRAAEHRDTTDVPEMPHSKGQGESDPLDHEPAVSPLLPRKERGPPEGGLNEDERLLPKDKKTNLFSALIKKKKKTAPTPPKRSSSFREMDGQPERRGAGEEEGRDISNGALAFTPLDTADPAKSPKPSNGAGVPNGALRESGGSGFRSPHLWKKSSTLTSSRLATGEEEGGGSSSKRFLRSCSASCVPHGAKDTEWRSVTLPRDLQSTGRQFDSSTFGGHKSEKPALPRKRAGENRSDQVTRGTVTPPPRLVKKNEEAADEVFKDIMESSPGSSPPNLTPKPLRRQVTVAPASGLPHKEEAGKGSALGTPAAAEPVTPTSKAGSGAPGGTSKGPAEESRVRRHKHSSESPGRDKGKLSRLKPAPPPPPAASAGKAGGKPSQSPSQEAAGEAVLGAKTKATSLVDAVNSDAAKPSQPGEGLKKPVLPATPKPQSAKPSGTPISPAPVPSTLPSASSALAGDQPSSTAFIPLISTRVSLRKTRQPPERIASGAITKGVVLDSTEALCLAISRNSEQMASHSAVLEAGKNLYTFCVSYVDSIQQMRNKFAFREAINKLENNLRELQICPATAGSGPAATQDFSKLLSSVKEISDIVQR

[5] = target: Tyrosine-protein kinase CSK (Homo sapiens) (UniProt P41240); experiment: CSK Invitrogen selectivity data (BI); conditions: Compound concentration 3.0 uM
[6] = target: Casein kinase I isoform gamma-2 (Homo sapiens) (UniProt P78368); experiment: CSNK1G2 Invitrogen selectivity data (BI); conditions: Compound concentration 3.0 uM
Sequence of Casein kinase I isoform gamma-2 (Homo sapiens) (P78368 whole entry, looked up, canonical isoform): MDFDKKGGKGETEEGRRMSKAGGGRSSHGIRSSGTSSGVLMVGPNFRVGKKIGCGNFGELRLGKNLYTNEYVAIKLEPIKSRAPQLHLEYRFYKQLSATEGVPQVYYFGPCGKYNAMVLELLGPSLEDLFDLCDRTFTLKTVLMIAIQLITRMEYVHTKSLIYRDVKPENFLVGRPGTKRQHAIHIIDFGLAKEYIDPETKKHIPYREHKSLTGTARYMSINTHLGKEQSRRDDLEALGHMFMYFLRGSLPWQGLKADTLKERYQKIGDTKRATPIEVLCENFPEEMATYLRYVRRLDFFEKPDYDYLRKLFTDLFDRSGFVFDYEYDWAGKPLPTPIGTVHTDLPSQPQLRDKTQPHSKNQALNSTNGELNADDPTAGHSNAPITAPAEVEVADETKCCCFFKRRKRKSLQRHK

[7] = target: Fibroblast growth factor receptor 2 (Homo sapiens) (UniProt P21802); experiment: FGFR2 Invitrogen selectivity data (BI); conditions: Compound concentration 3.0 uM
Sequence of Fibroblast growth factor receptor 2 (Homo sapiens) (P21802 22-821 limits assumed): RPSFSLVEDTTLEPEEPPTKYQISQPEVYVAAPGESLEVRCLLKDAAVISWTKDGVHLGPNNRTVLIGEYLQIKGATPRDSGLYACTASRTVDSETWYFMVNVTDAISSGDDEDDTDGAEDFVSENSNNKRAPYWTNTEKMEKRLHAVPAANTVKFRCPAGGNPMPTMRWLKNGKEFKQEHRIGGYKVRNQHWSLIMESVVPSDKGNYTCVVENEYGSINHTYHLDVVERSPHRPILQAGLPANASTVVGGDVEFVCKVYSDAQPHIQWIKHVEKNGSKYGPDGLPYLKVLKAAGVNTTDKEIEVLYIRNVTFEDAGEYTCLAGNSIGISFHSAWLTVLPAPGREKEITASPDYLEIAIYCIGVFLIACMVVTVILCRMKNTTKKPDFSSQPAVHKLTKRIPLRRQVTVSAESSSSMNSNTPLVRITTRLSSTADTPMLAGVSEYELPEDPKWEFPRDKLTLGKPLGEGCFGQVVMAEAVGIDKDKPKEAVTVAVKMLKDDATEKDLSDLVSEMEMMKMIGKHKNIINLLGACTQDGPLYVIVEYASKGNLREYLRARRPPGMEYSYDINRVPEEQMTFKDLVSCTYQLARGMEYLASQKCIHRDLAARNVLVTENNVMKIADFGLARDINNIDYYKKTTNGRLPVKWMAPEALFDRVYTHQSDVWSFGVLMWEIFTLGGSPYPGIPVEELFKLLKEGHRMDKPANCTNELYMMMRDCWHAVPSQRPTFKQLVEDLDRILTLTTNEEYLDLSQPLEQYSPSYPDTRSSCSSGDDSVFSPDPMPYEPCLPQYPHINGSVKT

[8] = target: Tyrosine-protein kinase Fgr (Homo sapiens) (UniProt P09769); experiment: FGR Invitrogen selectivity data (BI); conditions: Compound concentration 3.0 uM
[9] = target: Homeodomain-interacting protein kinase 3 (Homo sapiens) (UniProt Q9H422); experiment: HIPK3 Invitrogen selectivity data (BI); conditions: Compound concentration 3.0 uM
Sequence of Homeodomain-interacting protein kinase 3 (Homo sapiens) (Q9H422 whole entry, looked up): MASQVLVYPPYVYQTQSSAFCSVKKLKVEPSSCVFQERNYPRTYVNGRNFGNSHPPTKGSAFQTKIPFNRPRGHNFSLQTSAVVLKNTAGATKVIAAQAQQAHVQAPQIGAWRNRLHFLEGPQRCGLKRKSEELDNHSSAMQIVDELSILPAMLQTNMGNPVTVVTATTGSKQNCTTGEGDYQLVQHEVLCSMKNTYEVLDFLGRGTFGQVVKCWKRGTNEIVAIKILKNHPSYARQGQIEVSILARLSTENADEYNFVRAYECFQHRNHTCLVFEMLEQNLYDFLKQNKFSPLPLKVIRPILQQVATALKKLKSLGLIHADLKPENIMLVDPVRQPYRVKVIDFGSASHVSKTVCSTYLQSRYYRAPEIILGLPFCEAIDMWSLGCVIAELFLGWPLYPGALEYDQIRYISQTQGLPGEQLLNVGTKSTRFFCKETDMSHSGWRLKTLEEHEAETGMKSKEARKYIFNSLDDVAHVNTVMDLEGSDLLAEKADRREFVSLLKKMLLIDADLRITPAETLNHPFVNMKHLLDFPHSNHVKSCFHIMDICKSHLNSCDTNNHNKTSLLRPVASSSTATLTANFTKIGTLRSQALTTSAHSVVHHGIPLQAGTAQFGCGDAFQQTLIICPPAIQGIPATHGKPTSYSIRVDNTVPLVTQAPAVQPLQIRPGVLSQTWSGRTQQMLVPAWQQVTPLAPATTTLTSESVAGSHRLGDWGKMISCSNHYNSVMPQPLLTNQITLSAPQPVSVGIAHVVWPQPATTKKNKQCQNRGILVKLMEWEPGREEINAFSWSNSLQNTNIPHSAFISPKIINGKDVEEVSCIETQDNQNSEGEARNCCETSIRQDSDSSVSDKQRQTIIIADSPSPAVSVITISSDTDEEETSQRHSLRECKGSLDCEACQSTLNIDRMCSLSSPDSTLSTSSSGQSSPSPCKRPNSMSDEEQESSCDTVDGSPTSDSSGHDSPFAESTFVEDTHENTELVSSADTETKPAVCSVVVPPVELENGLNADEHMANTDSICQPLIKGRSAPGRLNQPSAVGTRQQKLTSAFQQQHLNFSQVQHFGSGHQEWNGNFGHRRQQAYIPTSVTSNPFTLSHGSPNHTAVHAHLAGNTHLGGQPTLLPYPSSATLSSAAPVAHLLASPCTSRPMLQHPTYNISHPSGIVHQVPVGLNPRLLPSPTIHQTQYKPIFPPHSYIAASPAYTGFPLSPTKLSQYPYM

[10] = target: T1, Homeodomain-interacting protein kinase 4 (Homo sapiens) (UniProt Q8NE63); experiment: HIPK4 Invitrogen selectivity data (BI); conditions: Compound concentration 3.0 uM
T1 sequence (whole entry): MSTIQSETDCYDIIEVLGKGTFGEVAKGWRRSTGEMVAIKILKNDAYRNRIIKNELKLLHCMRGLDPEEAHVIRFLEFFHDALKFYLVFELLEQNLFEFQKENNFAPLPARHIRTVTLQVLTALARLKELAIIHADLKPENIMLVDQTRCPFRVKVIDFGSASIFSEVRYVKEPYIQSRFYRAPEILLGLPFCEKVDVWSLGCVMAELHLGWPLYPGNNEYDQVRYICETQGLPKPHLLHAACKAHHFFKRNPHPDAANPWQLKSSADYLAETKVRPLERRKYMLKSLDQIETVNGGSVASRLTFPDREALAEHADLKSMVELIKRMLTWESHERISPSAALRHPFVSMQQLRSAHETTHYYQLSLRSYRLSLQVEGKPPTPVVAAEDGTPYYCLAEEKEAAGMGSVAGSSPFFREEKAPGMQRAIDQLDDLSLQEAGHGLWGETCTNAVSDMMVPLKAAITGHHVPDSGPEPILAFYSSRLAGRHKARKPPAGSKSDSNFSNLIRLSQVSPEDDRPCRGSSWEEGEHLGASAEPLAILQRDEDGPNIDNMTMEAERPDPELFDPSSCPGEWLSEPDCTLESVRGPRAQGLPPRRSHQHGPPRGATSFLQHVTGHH

[11] = target: Mitogen-activated protein kinase kinase kinase 8 (Homo sapiens) (UniProt P41279); experiment: MAP3K8 Invitrogen selectivity data (BI); conditions: Compound concentration 3.0 uM
[12] = target: MAP kinase-activated protein kinase 2 (Homo sapiens) (UniProt P49137); experiment: MAPKAPK2 Invitrogen selectivity data (BI); conditions: Compound concentration 3.0 uM
[13] = target: MAP kinase-activated protein kinase 3 (Homo sapiens) (UniProt Q16644); experiment: MAPKAPK3 Invitrogen selectivity data (BI); conditions: Compound concentration 3.0 uM
Sequence of MAP kinase-activated protein kinase 3 (Homo sapiens) (Q16644 whole entry, looked up): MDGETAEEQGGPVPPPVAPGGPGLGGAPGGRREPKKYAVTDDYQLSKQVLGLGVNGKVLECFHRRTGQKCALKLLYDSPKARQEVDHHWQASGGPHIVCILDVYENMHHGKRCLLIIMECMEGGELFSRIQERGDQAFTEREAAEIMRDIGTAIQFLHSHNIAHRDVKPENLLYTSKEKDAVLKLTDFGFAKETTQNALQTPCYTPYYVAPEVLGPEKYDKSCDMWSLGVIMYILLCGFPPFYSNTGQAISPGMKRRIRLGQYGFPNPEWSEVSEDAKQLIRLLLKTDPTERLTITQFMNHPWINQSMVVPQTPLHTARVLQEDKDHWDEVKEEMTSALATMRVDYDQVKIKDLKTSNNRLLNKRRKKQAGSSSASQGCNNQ

[14] = target: T2, Megakaryocyte-associated tyrosine-protein kinase (Homo sapiens) (UniProt P42679); experiment: MATK Invitrogen selectivity data (BI); conditions: Compound concentration 3.0 uM
T2 sequence (whole entry): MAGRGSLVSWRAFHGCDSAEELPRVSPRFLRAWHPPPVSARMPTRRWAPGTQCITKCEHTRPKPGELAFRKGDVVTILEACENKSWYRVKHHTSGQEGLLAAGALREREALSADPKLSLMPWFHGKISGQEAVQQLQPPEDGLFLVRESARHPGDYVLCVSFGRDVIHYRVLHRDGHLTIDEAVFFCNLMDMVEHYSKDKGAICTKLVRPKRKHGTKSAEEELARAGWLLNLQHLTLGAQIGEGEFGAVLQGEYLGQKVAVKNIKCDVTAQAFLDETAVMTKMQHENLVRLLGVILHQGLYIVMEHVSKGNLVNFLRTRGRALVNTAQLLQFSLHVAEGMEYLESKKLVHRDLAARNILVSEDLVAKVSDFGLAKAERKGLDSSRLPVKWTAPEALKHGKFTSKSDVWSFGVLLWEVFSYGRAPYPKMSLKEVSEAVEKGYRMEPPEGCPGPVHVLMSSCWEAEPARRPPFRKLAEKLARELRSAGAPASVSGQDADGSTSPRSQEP

[15] = target: NT-3 growth factor receptor (Homo sapiens) (UniProt Q16288); experiment: NTRK3 Invitrogen selectivity data (BI); conditions: Compound concentration 3.0 uM
[16] = target: cAMP-dependent protein kinase catalytic subunit alpha (Homo sapiens) (UniProt P17612); experiment: PRKACA Invitrogen selectivity data (BI); conditions: Compound concentration 3.0 uM
[17] = target: Serine/threonine-protein kinase 33 (Homo sapiens) (UniProt Q9BYT3); experiment: STK33 Invitrogen selectivity data (BI); conditions: Compound concentration 3.0 uM
Sequence of Serine/threonine-protein kinase 33 (Homo sapiens) (Q9BYT3 whole entry, looked up): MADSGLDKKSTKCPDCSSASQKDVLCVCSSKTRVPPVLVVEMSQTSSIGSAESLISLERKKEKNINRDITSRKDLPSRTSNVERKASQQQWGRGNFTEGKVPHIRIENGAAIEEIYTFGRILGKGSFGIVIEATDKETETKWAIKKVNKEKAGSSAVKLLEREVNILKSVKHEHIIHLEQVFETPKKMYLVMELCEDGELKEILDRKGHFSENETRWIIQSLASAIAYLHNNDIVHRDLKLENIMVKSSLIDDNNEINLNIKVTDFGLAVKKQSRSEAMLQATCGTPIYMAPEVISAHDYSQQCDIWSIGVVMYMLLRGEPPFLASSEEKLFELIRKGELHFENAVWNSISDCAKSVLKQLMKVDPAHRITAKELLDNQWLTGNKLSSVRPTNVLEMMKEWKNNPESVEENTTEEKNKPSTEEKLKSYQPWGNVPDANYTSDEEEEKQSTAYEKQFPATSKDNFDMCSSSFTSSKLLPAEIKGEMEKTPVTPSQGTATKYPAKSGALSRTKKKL

[18] = target: T3, Serine/threonine-protein kinase TAO3 (Homo sapiens) (UniProt Q9H2K8); experiment: TAOK3 Invitrogen selectivity data (BI); conditions: Compound concentration 3.0 uM
T3 sequence (whole entry): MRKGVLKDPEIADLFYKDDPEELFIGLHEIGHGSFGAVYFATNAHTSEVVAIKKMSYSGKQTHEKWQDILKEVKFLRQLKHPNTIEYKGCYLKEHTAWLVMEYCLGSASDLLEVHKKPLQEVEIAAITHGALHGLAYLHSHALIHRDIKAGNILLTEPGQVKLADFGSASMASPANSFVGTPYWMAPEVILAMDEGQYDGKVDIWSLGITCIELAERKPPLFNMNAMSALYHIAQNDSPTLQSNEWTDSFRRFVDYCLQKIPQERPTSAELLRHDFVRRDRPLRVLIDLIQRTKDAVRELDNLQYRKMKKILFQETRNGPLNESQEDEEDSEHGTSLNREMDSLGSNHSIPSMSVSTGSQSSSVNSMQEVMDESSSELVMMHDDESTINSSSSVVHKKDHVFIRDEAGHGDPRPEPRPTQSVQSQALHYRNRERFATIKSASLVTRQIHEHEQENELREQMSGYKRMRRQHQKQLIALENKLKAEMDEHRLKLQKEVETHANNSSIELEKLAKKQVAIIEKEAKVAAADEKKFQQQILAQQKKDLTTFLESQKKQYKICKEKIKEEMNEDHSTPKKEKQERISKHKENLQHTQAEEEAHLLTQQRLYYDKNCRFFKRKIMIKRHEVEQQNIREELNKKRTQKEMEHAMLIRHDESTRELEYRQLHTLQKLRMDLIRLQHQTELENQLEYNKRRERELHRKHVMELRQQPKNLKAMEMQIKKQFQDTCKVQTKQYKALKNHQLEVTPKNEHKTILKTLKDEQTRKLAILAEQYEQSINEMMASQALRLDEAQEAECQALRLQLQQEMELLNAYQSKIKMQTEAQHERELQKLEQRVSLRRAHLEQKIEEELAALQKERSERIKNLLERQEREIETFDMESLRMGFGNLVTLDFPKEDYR

Measured: residual activity

Sequence of Adenosine receptor A3 (Homo sapiens) (P0DMS8 whole entry): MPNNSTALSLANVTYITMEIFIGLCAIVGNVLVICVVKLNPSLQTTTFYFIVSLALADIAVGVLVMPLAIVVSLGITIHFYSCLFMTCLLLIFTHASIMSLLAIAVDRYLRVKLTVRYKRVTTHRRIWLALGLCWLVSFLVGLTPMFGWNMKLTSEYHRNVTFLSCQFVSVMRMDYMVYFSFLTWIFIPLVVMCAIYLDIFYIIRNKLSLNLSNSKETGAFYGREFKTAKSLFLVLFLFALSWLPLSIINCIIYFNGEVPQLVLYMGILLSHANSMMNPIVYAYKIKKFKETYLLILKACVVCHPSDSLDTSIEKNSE

CN(C)C(=O)Cn1cc(-c2nc([C@@](C)(c3ccc(-c4cnc(N)nc4)cc3)C3CC3)no2)cn1 [BI 665915]
inactive: [1] 97% | [2] 64% | [3] 113% | [4] 84% | [5] 95% | [6] 98.5% | [7] 89% | [8] 90.5% | [9] 99% | [10] 98.5% | [11] 93.5% | [12] 96.5% | [13] 98.5% | [14] 97.5% | [15] 93% | [16] 104% | [17] 101% | [18] 104%
